In ChEMBL document CHEMBL1287667, “A targeted low molecular weight near-infrared fluorescent probe for prostate cancer” (Bioorg Med Chem Lett, 2010):
Active and inactive are the calls of the source. The rule behind the calls is not given here.

What was measured:
[1] = target: T1, Glutamate carboxypeptidase 2 (Homo sapiens, UniProt Q04609); assay: Inhibition of PSMA in human LNCaP cells; type: cell-based
Target sequence in this assay (Q04609 whole entry): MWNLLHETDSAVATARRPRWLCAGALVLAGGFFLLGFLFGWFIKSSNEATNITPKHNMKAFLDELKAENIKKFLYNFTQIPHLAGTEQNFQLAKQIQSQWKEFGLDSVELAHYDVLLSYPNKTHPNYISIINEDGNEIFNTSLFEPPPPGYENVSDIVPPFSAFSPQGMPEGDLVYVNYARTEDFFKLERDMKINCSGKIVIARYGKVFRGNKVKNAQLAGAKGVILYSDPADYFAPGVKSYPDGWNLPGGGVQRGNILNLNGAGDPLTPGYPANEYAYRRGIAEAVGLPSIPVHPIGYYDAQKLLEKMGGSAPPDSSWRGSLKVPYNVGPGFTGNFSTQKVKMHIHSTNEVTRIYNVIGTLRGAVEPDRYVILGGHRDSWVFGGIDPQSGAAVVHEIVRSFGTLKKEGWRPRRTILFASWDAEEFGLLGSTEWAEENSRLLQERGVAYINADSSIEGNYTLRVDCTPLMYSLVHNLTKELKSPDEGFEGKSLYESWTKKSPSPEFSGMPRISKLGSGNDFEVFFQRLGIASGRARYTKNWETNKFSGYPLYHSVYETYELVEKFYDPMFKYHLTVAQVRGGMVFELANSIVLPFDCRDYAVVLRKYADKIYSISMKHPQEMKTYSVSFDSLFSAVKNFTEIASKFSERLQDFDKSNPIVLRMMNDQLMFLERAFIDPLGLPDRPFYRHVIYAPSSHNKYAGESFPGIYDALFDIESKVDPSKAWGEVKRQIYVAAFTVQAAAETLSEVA

[2] = target: T1, Glutamate carboxypeptidase 2; assay: Reversible inhibition of purified PSMA at 10 times IC50 after 25 mins measured after 100 fold dilution
Target sequence in this assay (Q04609 whole entry, looked up): as the sequence (Q04609 whole entry) above

IC50 [1] [nM] | Activity [2] | SMILES
0.55 | Active | CCN1/C(=C/C=C/C=C/C2=[N+](CCCCCC(=O)N[C@@H](CCC(=O)N[C@@H](COP(=O)([O-])O[C@@H](CCC(=O)O)C(=O)O)C(=O)O)C(=O)O)c3ccc4c(S(=O)(=O)O)cc(S(=O)(=O)O)cc4c3C2(C)C)C(C)(C)c2c1ccc1c(S(=O)(=O)O)cc(S(=O)(=O)O)cc21
144 | Active | N[C@@H](CCC(=O)N[C@@H](COP(=O)(O)O[C@@H](CCC(=O)O)C(=O)O)C(=O)O)C(=O)O
6100 |  | CCN1/C(=C/C=C/C=C/C2=[N+](CCCCCC(=O)[O-])c3ccc4c(S(=O)(=O)O)cc(S(=O)(=O)O)cc4c3C2(C)C)C(C)(C)c2c1ccc1c(S(=O)(=O)O)cc(S(=O)(=O)O)cc21
